According to patent US12084430B2, “Tricyclic urea compounds as JAK2 V617F inhibitors” (Incyte Corporation, priority 2022, dated 2024):

Columns and labels:
[1] = tested on: KIT; assay: KIT enzymatic assay; format: biochemical
Procedure, shortened: (§1)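 0.12 nM KIT with 1 mM ATP and 500 nM biotinylated TK substrate in 50 mM HEPES pH 7.0, 10 mM MgCl2, 1 mM DTT, 0.1 mM orthovanadate, 0.5% DMSO; 60 min at room temperature. TR-FRET 665/620 nm ratio; IC50 fitted from percent control activity versus log concentration.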

[2] = target: KIT (Homo sapiens, UniProt P10721); assay: KIT enzymatic assay; format: biochemical; conditions: 1 mM ATP
Chain of KIT (Homo sapiens, UniProt P10721) (P10721 26-976, species assumed): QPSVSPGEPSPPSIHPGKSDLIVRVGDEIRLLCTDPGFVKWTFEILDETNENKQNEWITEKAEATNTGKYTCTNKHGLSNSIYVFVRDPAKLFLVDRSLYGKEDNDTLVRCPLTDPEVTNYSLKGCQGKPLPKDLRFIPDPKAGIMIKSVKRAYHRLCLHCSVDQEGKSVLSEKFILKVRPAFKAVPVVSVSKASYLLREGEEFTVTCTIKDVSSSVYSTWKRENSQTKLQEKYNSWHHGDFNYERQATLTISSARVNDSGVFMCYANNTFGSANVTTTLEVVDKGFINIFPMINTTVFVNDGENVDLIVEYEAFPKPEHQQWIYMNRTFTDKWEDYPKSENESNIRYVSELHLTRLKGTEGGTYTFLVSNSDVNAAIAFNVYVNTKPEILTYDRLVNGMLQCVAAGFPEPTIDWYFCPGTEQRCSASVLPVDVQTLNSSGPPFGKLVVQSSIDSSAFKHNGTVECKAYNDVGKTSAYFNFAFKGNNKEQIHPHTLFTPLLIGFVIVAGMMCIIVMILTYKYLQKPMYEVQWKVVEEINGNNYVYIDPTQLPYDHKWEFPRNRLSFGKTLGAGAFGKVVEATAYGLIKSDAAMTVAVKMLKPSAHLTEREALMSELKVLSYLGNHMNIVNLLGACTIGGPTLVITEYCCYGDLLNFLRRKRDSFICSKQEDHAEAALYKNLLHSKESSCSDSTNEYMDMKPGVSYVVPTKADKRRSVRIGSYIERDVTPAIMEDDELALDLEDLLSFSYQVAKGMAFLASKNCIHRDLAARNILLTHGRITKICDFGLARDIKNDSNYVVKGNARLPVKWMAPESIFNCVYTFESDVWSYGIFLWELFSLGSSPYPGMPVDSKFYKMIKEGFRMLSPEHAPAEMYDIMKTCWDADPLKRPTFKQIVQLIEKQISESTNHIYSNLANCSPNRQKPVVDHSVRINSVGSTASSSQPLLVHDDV
Procedure, shortened: as §1

[3] = tested on: STAT5 (Tyr694) phosphorylation in SET-2 cells; assay: STAT5 (Tyr694) phosphorylation cell based assay; conditions: Homo sapiens, pSTAT5, 2 hours, read-out: SET2 IC50
Procedure, shortened: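 SET-2 cells (7×10^6 cells/mL, RPMI 10% FBS, 0.5% DMSO) treated with compound 2 h at 37 °C, then lysed 90 min at RT. Phospho-STAT5 (Tyr694) detected by HTRF sandwich antibodies after 24 h at RT, 665/620 ratio. IC50 from percent control activity versus log concentration, DMSO and high-concentration control compound as references.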

[4] = tested on: TRKA; assay: TRKA enzymatic assay; format: biochemical
Procedure, shortened: (§2)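 The reaction mix held 0.58 nM TRKA, 1 mM ATP and 500 nM biotinylated TK substrate in 50 mM HEPES pH 7.0 with 10 mM MgCl2, 1 mM DTT and 0.5% DMSO, run 60 min at room temperature. Product was detected by TR-FRET as the 665/620 nm ratio. IC50 was fitted from % control activity versus log concentration, using DMSO-only and no-ATP wells as controls.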

[5] = target: TRKA (Homo sapiens, UniProt P04629); assay: TRKA enzymatic assay; format: biochemical; conditions: 1 mM ATP
Chain of TRKA (Homo sapiens, UniProt P04629) (P04629 33-796, species assumed): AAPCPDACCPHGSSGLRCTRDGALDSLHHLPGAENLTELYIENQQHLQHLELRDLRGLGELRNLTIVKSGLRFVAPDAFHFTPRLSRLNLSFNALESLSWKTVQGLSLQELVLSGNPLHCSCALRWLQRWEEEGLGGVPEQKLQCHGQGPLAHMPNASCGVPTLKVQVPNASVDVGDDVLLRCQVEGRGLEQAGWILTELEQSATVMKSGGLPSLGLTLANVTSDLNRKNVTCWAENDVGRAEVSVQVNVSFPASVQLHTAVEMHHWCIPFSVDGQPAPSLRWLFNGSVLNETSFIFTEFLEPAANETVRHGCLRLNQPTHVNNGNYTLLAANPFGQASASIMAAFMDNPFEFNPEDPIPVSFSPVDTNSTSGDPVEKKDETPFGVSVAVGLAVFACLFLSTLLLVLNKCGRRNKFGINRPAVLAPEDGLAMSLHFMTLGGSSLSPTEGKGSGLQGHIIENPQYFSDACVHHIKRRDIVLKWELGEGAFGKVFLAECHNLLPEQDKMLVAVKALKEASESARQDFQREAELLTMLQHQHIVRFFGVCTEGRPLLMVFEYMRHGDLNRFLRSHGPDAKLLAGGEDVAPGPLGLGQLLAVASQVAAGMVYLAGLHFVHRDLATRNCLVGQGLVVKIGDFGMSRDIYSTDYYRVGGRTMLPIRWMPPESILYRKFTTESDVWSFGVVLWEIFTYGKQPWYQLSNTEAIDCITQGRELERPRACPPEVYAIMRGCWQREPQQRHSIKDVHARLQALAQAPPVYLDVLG
Procedure, shortened: as §2

SMILES | Selectivity KIT/JH2 V617F [1] | IC50 [2] [nM] | IC50 [3] [nM] | Selectivity TRKA/JH2 V617F [4] | IC50 [5] [nM]
[2H]C([2H])([2H])n1c(=O)n([C@@H]2CC[C@@H](NC(=O)OC)C2)c2c3c(-c4ccc5c(c4)COC5(C)C)c(-c4cn(C([2H])([2H])C([2H])([2H])[2H])nc4F)[nH]c3ncc21 [Example 19, Methyl ((1R,3R)-3-(8-(1,1-dimethyl-1,3-dihydroisobenzofuran-5-yl)-7-(1-(ethyl-d5)-3-fluoro-1H-pyrazol-4-yl)-3-(methyl-d3)-2-oxo-3,6-dihydroimidazo[4,5-d]pyrrolo[2,3-b]pyridin-1(2H)-yl)cyclopentyl)carbamate] | ****** (selectivity of >12500-fold) | > 2500 | ≤ 300 | ****** (selectivity of >12500-fold) | > 2500
[2H]C([2H])([2H])n1c(=O)n([C@@H]2CC[C@@H](NC(=O)OC)C2)c2c3c(-c4ccc5c(c4)COC5(C)C)c(-c4cn(CC)nc4F)[nH]c3ncc21 [Example 20, Methyl ((1R,3R)-3-(8-(1,1-dimethyl-1,3-dihydroisobenzofuran-5-yl)-7-(1-ethyl-3-fluoro-1H-pyrazol-4-yl)-3-(methyl-d3)-2-oxo-3,6-dihydroimidazo[4,5-d]pyrrolo[2,3-b]pyridin-1(2H)-yl)cyclopentyl)carbamate] | ****** (selectivity of >12500-fold) | > 2500 | ≤ 300 | ****** (selectivity of >12500-fold) | > 2500
[2H]C([2H])([2H])n1ncc2cc(-c3c(-c4cn(C([2H])(C([2H])([2H])[2H])C([2H])([2H])[2H])nc4F)[nH]c4ncc5c(c34)n([C@@H]3CC[C@@H](NC(=O)OC)C3)c(=O)n5C([2H])([2H])[2H])ccc21 [Example 21, Methyl ((1R,3R)-3-(7-(3-fluoro-1-(propan-2-yl-d7)-1H-pyrazol-4-yl)-3-(methyl-d3)-8-(1-(methyl-d3)-1H-indazol-5-yl)-2-oxo-3,6-dihydroimidazo[4,5-d]pyrrolo[2,3-b]pyridin-1(2H)-yl)cyclopentyl)carbamate] | ****** (selectivity of >12500-fold) | 1250 to 2500 | ≤ 300 | ****** (selectivity of >12500-fold) | > 2500
